Experimental data from patent publication US9113629B2, “4-amino-6-(4-substituted-phenyl)-picolinates and 6-amino-2-(4-substituted-phenyl)-pyrimidine-4-carboxylates and their use as herbicides” (DOW AGROSCIENCES LLC, priority 2013, dated 2015).
Read-outs that look alike come from different tables or passages of the source.

Assays:
[1] = test system: Key Broadleaf Weed and Crop Species; assay: Post-emergent Test II herbicidal activity (Table 5); type: in vivo; details: post-emergence, 336 h, 14 days after application; for pest or weed control at 70 g/ha: application rate 70 g ai/ha; for pest or weed control at 140 g/ha: application rate 140 g ai/ha
In short: (§1)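 Plants grown in Metro-Mix 360 (pH 6.0–6.8) in a greenhouse (~15 h photoperiod, 23–29 °C day) to first or second true leaf stage, then sprayed with compound in acetone/DMSO/aqueous crop-oil-surfactant carrier at 187 L/ha by track sprayer. Injury visually scored 0–100% versus untreated plants after 14 d.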

[2] = test system: Key Grass and Sedge Weeds as well as Grass Crops; assay: Post-emergent Test II herbicidal activity (Table 6); type: in vivo; details: post-emergence, 336 h; for pest or weed control at 70 g/ha: 70 g ai/ha; for pest or weed control at 140 g/ha: 140 g ai/ha
In short: as §1

[3] = ABUTH: velvetleaf (Abutilon theophrasti), read-out: Visual Growth Reduction (%) 14 Days After Application, ABUTH
[4] = AMARE: redroot pigweed (Amaranthus retroflexus), read-out: Visual Growth Reduction (%) 14 Days After Application, AMARE
[5] = BRSNN: oilseed-rape, canola (Brassica napus), read-out: Visual Growth Reduction (%) 14 Days After Application, BRSNN
[6] = CHEAL: lambsquarters (Chenopodium album), read-out: Visual Growth Reduction (%) 14 Days After Application, CHEAL
[7] = EPHHL: wild poinsettia (Euphorbia heterophylla), read-out: Visual Growth Reduction (%) 14 Days After Application, EPHHL
[8] = HELAN: sunflower (Helianthus annuus), read-out: Visual Growth Reduction (%) 14 Days After Application, HELAN
[9] = VIOTR: wild pansy (Viola tricolor), read-out: Visual Growth Reduction (%) 14 Days After Application, VIOTR
[10] = CYPES: yellow nutsedge (Cyperus esculentus), read-out: Visual Growth Reduction (%) 14 Days After Application, CYPES
[11] = DIGSA: crabgrass (Digitaria sanguinalis), read-out: Visual Growth Reduction (%) 14 Days After Application, DIGSA
[12] = ECHCG: barnyardgrass (Echinochloa crus-galli), read-out: Visual Growth Reduction (%) 14 Days After Application, ECHCG
[13] = ORYSA: rice (Oryza sativa), crop, read-out: Visual Growth Reduction (%) 14 Days After Application, ORYSA
[14] = SETFA: giant foxtail (Setaria faberi), read-out: Visual Growth Reduction (%) 14 Days After Application, SETFA
[15] = SORVU: grain sorghum (Sorghum vulgare), read-out: Visual Growth Reduction (%) 14 Days After Application, SORVU
[16] = TRZSS (wheat, Triticum aestivum), crop, read-out: Visual Growth Reduction (%) 14 Days After Application, TRZSS
[17] = ZEAMX: maize, corn (Zea mays), crop, read-out: Visual Growth Reduction (%) 14 Days After Application, ZEAMX

Row | SMILES | pest or weed control at 70 g/ha [1, 3] [%] | pest or weed control at 140 g/ha [1, 3] [%] | pest or weed control at 70 g/ha [1, 4] [%] | pest or weed control at 140 g/ha [1, 4] [%] | pest or weed control at 70 g/ha [1, 5] [%] | pest or weed control at 140 g/ha [1, 5] [%] | pest or weed control at 70 g/ha [1, 6] [%] | pest or weed control at 140 g/ha [1, 6] [%] | pest or weed control at 70 g/ha [1, 7] [%] | pest or weed control at 140 g/ha [1, 7] [%] | pest or weed control at 70 g/ha [1, 8] [%] | pest or weed control at 140 g/ha [1, 8] [%] | pest or weed control at 70 g/ha [1, 9] [%] | pest or weed control at 140 g/ha [1, 9] [%] | pest or weed control at 70 g/ha [2, 10] [%] | pest or weed control at 140 g/ha [2, 10] [%] | pest or weed control at 70 g/ha [2, 11] [%] | pest or weed control at 140 g/ha [2, 11] [%] | pest or weed control at 70 g/ha [2, 12] [%] | pest or weed control at 140 g/ha [2, 12] [%] | also measured
1 | C#Cc1ccc(-c2nc(N)c(OC)c(C(=O)O)n2)c(F)c1 [Compound 41] | 0 to 29 | 0 to 29 | 0 to 29 | 0 to 29 | 0 to 29 | 45 to 59 | 0 to 29 | 60 to 74 | 0 to 29 | 0 to 29 | 60 to 74 | 75 to 84 | 0 to 29 | 0 to 29 | 0 to 29 | 0 to 29 | 0 to 29 | 0 to 29 | 0 to 29 | 0 to 29 | pest or weed control at 70 g/ha [2, 13]: 0 to 29%; pest or weed control at 140 g/ha [2, 13]: 0 to 29%; pest or weed control at 70 g/ha [2, 14]: 0 to 29%; pest or weed control at 140 g/ha [2, 14]: 0 to 29%; pest or weed control at 70 g/ha [2, 15]: 0 to 29%; pest or weed control at 140 g/ha [2, 15]: 0 to 29%; pest or weed control at 70 g/ha [2, 16]: 0 to 29%; pest or weed control at 140 g/ha [2, 16]: 0 to 29%; pest or weed control at 70 g/ha [2, 17]: 0 to 29%; pest or weed control at 140 g/ha [2, 17]: 0 to 29%; melting point: 155 to 165 °C (dec.)
2 | COc1c(N)nc(-c2ccc(Br)cc2F)nc1C(=O)O [Compound 46] | 95 to 100 | 95 to 100 | 85 to 94 | 95 to 100 | 95 to 100 | 95 to 100 | 95 to 100 | 95 to 100 | 95 to 100 | 95 to 100 | 85 to 94 | 95 to 100 | 45 to 59 | 95 to 100 | 95 to 100 | 95 to 100 | 45 to 59 | 60 to 74 | 85 to 94 | 85 to 94 | pest or weed control at 70 g/ha [2, 13]: 0 to 29%; pest or weed control at 140 g/ha [2, 13]: 0 to 29%; pest or weed control at 70 g/ha [2, 14]: 75 to 84%; pest or weed control at 140 g/ha [2, 14]: 85 to 94%; pest or weed control at 70 g/ha [2, 15]: 45 to 59%; pest or weed control at 140 g/ha [2, 15]: 60 to 74%; pest or weed control at 70 g/ha [2, 16]: 45 to 59%; pest or weed control at 140 g/ha [2, 16]: 60 to 74%; pest or weed control at 70 g/ha [2, 17]: 45 to 59%; pest or weed control at 140 g/ha [2, 17]: 45 to 59%; melting point: 133 to 135 °C
3 | C#Cc1ccc(-c2nc(C(=O)O)c(Cl)c(N)c2F)c(F)c1F [Compound 50] | 60 to 74 | 60 to 74 | 0 to 29 | 0 to 29 | 0 to 29 | 0 to 29 | 0 to 29 | 0 to 29 | 45 to 59 | 95 to 100 | 45 to 59 | 60 to 74 | 0 to 29 | 0 to 29 | 0 to 29 | 0 to 29 | 0 to 29 | 45 to 59 | 45 to 59 | 75 to 84 | pest or weed control at 70 g/ha [2, 13]: 0 to 29%; pest or weed control at 140 g/ha [2, 13]: 0 to 29%; pest or weed control at 70 g/ha [2, 14]: 30 to 44%; pest or weed control at 140 g/ha [2, 14]: 45 to 59%; pest or weed control at 70 g/ha [2, 15]: 0 to 29%; pest or weed control at 140 g/ha [2, 15]: 0 to 29%; pest or weed control at 70 g/ha [2, 16]: 0 to 29%; pest or weed control at 140 g/ha [2, 16]: 0 to 29%; pest or weed control at 70 g/ha [2, 17]: 95 to 100%; pest or weed control at 140 g/ha [2, 17]: 95 to 100%; melting point: 174 to 176 °C
